# Results published in patent US6544996B2, “1-phenyl-4-(1-[2-aryl]cyclopropyl) methylpiperazines: dopamine receptor ligands” (Neurogen Corporation, priority 1999, dated 2003).
# pKi: −log10 of the molar value.
# Key:
# [1] = biological target: T1, recombinantly produced D2 receptors from human (COS cells) (Homo sapiens, UniProt P14416); test: biochemical; format: binding; settings: COS cell pellets, 0.5 nM 3H-YM 09151-2
# T1 construct: expressed in transfected cells; host or cells: COS cells
# Experimental: (§1) Pellets of COS cells containing recombinantly produced D2 or D4 receptors from human are used for the assays. The sample is homogenized in 100 volumes (w/vol) of 0.05 M Tris HCl buffer at 4° C. and pH 7.4. The sample is then centrifuged at 30,000×g and resuspended and rehomogenized. The sample is then centrifuged as described and the final tissue sample is frozen until use. The tissue is resuspended […] (wt/vol) in 0.05 M Tris HCl buffer containing 100 mM NaCl.
# [2] = biological target: T2, recombinantly produced D4 receptors from human (COS cells) (Homo sapiens, UniProt P21917); test: Determination of D4 receptor binding activity (3H-YM 09151-2 displacement)
# T2 construct: expressed in transfected cells; host or cells: COS cells
# T2 sequence (P21917 1-419): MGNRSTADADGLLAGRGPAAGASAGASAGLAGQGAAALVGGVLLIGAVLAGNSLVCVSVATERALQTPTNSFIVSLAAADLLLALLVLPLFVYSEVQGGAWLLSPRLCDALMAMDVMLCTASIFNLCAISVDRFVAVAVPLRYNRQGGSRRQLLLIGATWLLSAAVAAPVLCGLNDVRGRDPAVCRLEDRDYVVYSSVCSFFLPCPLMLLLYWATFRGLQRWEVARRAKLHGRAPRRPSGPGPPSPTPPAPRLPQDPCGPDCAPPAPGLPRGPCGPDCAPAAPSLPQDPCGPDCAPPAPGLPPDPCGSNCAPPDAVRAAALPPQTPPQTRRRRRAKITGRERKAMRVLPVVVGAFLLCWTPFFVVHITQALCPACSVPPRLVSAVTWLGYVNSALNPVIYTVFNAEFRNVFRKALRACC
# Experimental: as §1
# T1 sequence (P14416 whole entry): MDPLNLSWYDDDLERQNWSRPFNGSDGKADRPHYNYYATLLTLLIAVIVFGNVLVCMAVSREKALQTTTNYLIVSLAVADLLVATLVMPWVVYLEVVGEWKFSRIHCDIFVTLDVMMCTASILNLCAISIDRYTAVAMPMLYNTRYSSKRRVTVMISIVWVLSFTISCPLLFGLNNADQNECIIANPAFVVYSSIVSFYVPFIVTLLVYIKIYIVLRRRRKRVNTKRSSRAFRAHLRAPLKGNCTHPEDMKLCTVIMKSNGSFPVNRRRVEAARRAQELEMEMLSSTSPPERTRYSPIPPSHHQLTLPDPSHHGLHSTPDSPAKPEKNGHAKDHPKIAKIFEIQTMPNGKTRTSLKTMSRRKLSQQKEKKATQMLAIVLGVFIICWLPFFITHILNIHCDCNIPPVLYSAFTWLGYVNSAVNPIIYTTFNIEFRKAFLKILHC
SMILES,melting point [°C],pKi [1],pKi [2]
Br.Cc1cc([N+](=O)[O-])ccc1N1CCN(C[C@@H]2C[C@H]2c2ccccc2)CC1 (relative stereo),197 to 198,,
"Clc1ccc([C@H]2C[C@@H]2CN2CCN(c3ccc(Cl)cc3)CC2)cc1 (relative stereo) [Compound 3, 1-(4-chlorophenyl)-4-(trans-2-[4-chlorophenyl]cyclopropyl)methylpiperazine]",,6.28,8.10
Br.Cc1cc(Br)ccc1N1CCN(C[C@@H]2C[C@H]2c2ccccc2)CC1 (relative stereo),182 to 183,,
Br.Cc1cc(N)ccc1N1CCN(C[C@@H]2C[C@H]2c2ccccc2)CC1 (relative stereo),284 to 285,,
